Assay results from patent publication US20220259202A1, “1-(4-(AMINOMETHYL)BENZYL)-2-BUTYL-2H-PYRAZOLO[3,4-C]QUINOLIN-4-AMINE DERIVATIVES AND RELATED COMPOUNDS AS TOLL-LIKE RECEPTOR (TLR) 7/8 AGONISTS, AS WELL AS ANTIBODY DRUG CONJUGATES THEREOF FOR USE IN CANCER THERAPY AND DIAGNOSIS” (SUTRO BIOPHARMA, INC., priority 2019, published 2022).

Assays:
[1] = molecular target: T1, human TLR8 (Homo sapiens, UniProt Q9NR97); experiment: HEK293 SEAP reporter assay, other TLRs (Biological Example 3); format: cell-based; settings: 16 hrs, * = Estimated
T1 construct: host or cells: HEK293
T1 sequence (Q9NR97 27-1041): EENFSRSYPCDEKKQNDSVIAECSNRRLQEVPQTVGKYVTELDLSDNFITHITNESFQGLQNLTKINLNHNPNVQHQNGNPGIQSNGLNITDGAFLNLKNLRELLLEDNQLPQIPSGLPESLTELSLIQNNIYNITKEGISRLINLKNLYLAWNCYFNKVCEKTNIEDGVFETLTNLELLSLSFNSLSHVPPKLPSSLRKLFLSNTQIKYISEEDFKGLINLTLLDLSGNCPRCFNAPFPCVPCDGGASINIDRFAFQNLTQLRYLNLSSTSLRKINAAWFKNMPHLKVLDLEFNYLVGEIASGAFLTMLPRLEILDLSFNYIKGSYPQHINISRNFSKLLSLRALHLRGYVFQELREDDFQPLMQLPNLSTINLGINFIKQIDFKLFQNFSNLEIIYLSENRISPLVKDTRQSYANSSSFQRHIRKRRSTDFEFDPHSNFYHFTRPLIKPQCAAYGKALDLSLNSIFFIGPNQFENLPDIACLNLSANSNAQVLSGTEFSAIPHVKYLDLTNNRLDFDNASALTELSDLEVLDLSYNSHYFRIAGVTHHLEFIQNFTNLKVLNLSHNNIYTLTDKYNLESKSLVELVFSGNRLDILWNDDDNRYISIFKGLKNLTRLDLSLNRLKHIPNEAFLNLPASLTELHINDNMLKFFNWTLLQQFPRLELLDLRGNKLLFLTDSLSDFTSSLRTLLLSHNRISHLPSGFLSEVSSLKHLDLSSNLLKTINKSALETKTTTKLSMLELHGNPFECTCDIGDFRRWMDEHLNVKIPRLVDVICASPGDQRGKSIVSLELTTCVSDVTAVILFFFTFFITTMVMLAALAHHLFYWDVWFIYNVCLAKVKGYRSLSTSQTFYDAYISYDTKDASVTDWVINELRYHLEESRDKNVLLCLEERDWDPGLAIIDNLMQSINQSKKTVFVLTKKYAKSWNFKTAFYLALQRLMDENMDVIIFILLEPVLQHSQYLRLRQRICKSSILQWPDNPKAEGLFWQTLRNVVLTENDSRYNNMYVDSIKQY
Description: (§1) In this example, the activity of the Compound 1 to stimulate different human and mouse TLR pathways was investigated on HEK293 cells transfected with inducible SEAP (secreted embryonic alkaline phosphatase) reporter genes and also expressing different human TLRs (TLR2, TLR3, TLR4, TLR5, TLR7, TLR8, TLRS) or mouse TLRs (TLR2, TLR3, TLR4, TLR5, TLR7, TLR8, TLR13).
(§2) HEK293 reporter cell lines were purchased from Invivogen and cell lines were maintained in manufacture recommended culture medium with required supplemental antibiotics. On the day of assay, the cells were harvested with Accutase and counted by the Vi-CELL Cell Viability Analyzers. Cells were re-suspended in HEK blue detection medium and a total of 10000 cells were seeded in each well of a 384-well flat bottom plate. […] Assay plates were cultured at 37° C. in a CO2 incubator for 16 hrs. HEK-Blue™ Detection medium changes to a purple/blue color in the presence of secreted SEAP, which can be detected by spectrophotometry at 620-655 nm. Data was fitted with non-linear regression analysis, using a log(inhibitor) vs. response-variable slope, 3-parameter fit with GraphPad Prism.

[2] = molecular target: T2, human TLR7 (Homo sapiens, UniProt Q9NYK1); experiment: as above; format: cell-based; settings: 16 hrs, * = Estimated
T2 construct: host or cells: HEK293
T2 sequence (Q9NYK1 27-1049): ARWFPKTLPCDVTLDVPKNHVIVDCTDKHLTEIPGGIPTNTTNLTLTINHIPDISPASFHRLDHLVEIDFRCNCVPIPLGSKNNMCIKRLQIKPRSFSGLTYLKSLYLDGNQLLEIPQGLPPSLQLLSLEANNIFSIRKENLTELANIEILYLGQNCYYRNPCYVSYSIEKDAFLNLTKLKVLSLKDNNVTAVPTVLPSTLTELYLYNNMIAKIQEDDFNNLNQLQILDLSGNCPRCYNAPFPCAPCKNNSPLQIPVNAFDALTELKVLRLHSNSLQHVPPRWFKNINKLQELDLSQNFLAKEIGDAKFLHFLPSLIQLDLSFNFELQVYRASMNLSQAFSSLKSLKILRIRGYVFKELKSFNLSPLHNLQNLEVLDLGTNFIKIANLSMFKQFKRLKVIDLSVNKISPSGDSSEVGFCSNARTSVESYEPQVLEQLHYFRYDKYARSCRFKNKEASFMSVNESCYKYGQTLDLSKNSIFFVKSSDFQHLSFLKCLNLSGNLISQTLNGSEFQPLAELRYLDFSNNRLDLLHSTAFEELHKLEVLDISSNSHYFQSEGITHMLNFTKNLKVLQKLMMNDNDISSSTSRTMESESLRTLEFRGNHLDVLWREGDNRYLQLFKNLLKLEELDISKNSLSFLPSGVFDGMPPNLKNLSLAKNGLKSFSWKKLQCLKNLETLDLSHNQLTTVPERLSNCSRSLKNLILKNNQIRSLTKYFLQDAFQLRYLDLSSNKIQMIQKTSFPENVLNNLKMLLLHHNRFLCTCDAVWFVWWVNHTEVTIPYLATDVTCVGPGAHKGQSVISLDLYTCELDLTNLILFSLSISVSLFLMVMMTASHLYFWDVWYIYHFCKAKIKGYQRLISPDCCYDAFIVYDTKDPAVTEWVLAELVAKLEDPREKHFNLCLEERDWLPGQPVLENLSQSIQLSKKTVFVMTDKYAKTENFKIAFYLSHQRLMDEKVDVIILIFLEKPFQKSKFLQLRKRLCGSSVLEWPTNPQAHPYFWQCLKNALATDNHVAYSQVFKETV
Description: as §1, §2

EC50 [1]: ~401 nM
EC50 [2]: 61.4 nM
Compound: CCCCn1nc2c(N)nc3ccccc3c2c1Cc1ccc(CN)cc1 [Compound 1, 1-(4-(aminomethyl)benzyl)-2-butyl-2H-pyrazolo[3,4-c]quinolin-4-amine]
